The text below walks through data of publication PMC12263630 (Frontiers in Pharmacology, 2025).

Where two headings read alike, the source gives them in different places.

The target in data set [1] is T1, human α2C adrenergic receptor (Homo sapiens, UniProt P18825).
T1 sequence (P18825 1-462): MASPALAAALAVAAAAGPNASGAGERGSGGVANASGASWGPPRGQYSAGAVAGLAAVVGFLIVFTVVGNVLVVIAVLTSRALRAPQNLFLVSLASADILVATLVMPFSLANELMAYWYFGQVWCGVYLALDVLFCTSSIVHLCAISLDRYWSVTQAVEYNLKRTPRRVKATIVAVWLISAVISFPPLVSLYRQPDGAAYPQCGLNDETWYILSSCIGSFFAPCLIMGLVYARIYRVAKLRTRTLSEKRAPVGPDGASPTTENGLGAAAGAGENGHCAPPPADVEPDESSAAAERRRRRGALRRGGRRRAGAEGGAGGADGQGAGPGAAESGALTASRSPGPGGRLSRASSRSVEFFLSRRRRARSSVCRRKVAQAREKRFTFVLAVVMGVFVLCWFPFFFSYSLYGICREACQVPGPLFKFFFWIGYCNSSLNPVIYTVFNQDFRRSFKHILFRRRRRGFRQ
As to the kind of experiment: [35S]GTPγS binding assay, α2C. The data set is classed as biochemical. The following applies: for Max activity / EC50: α2CR; for Max activity: relative to maximal response of UK-14304; for EC50: [35S]GTPγS binding. The method, then: (§1) Cells were transfected with constructs encoding either human α2A (Chem-1, rat hematopoietic cell line), or α2B or α2C (Cho-K1, Chinese hamster ovary cell line) adrenergic receptors. Each test compound was prepared in DMSO at 10 mM and diluted to indicated concentrations in the incubation buffer (20 mM HEPES, 100 mM NaCl, 10 mM MgCl2, 1 mM DTT, 1 mM EDTA, pH 7.4.
(§2) Binding data were generated as duplicates. […] Three parameter logistic equations were fitted to the data to obtain EC50 and Emax values.
Background: GTPγS resists hydrolysis and so accumulates on activated G proteins.

Data set [2] has as its target T2, human α2C adrenoceptor (Homo sapiens, UniProt P18825).
T2 construct: expressed in transfected cells
T2 sequence (P18825 1-462): T1 sequence (P18825 1-462)
In words: β-arrestin recruitment chemiluminescent assay (PathHunter), α2C. The following applies: α2CR; for Max activity: relative to UK-14304. The data set is classed as cell-based. The protocol:
(§3) PathHunter cell lines were expanded from freezer stocks according to standard procedures. Cells were seeded in a total volume of 20 μL into white walled, 384-well microplates and incubated at 37°C for the appropriate time prior to testing. Intermediate dilution of sample stocks was performed to generate 5X sample in assay buffer. […] Vehicle concentration was 1%. […] Microplates were read following signal generation with a PerkinElmer Envision™ instrument for chemiluminescent signal detection.
(In general: Activated receptors often draw arrestin, which recruitment assays turn into a signal.)

The target of data set [3] is T3, human α2A adrenoceptor (Homo sapiens, UniProt P08913).
T3 construct: expressed in transfected cells
T3 sequence (P08913 1-465): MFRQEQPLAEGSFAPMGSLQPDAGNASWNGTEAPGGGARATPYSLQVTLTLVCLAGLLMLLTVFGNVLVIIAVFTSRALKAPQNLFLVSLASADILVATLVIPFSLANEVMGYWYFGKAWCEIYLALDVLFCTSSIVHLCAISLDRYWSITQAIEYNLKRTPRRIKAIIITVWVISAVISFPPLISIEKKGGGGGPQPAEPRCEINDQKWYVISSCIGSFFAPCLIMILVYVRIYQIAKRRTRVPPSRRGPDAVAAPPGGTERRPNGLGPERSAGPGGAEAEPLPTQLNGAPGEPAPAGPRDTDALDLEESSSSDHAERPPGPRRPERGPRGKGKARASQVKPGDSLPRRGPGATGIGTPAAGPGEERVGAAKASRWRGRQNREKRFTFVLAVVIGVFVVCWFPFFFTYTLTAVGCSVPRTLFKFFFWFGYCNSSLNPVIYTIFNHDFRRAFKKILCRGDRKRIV
In words: β-arrestin recruitment chemiluminescent assay (PathHunter), α2A. In kind it is cell-based. As to conditions: α2AR, relative to UK-14304. The protocol: as §3

Data set [4] deals with T4, human α2A adrenergic receptor (Homo sapiens, UniProt P08913).
T4 construct: expressed in transfected cells; host or cells: Chem-1 (rat hematopoietic cell line), membranes
T4 sequence (P08913 1-465): T3 sequence (P08913 1-465)
In words: [35S]GTPγS binding assay, α2A. In kind it is biochemical. As to conditions: α2AR; relative to maximal response of UK-14304. The method, then:
as §1, §2

Data set [5] addresses human α2B adrenoceptor (Homo sapiens, UniProt P18089). As to the kind of experiment: cell-based. The method, then:
as §3

Data set [6] deals with stress-induced immobility after repeated stress. As to the kind of experiment: Open space swim test. The following applies: for time spent in the periphery, change vs vehicle controls / mean duration of immobility, change vs vehicle controls / mean distance travelled, change vs vehicle controls: Day 8, 40 μg/kg i.p. acute; for time spent in the periphery, change vs vehicle controls: p < 0.001.

Data set [7] concerns stress-induced immobility. In words: Forced swim test. The data set is classed as in vivo, SD rats. The following applies: versus vehicle; for immobility time: 60 min prior.
Protocol: A total of 78 male SD rats (9–10 weeks old) were procured from Hylasco Biotechnology Pvt. Ltd., Hyderabad, India and were divided into seven groups (9–12 animals per group). Animals were housed in an environmentally controlled room at 22°C ± 3°C and relative humidity of 30–70 percent. Adequate fresh air supply of 12–15 air changes/hour was maintained. The temperature was maintained at 20°C–23°C. […] The lights of the acclimatization area were switched off at 06:00 p.m. Two rats per cage were housed in sterilized suspended standard, polysulfone cages, (Size: approximately L425 x B266 x H185 mm), with stainless steel top grills having facilities for holding pelleted food and drinking water in polycarbonate bottles with stainless steel sipper tubes. During the study period animals were housed in a single room. Animals received food and water ad libitum.
The test was carried out in transparent cylindrical glass containers measuring 46 cm in height and 20 cm in diameter. The containers were filled with water (23°C–25 °C) to a depth of 30 cm. Clean drying cages, heat lamps and heat pads were used for the animals that have finished the procedure to avoid hypothermia. The test was carried out in Dark Phase. […] A red bulb of 50 W was used for observation during Swim 1 and Swim 2 procedure. Swim 1 was carried out between 18:30 to 21:30 and Swim 2 was carried out between 19:30 to 21:30.
On test day, animals were dosed intramuscularly with respective treatment 60 min prior to performing FST. […] In swim 2, the first 1-min data was excluded from analysis and the remaining 5 min data was considered.
Rats were placed in the water-filled cylinder for 6 min during Swim 2. […] A rat was judged to be immobile when it remained floating in the water without struggling and was making only those movements necessary to keep its head above water. […] Water was changed after every session to avoid any influence on the next rat. […] The rats were placed in a swim chamber and behaviors were measured for 5 min on test day. Data was presented as total immobility time (in seconds) over the 5-min trial.
In data set [8] the target is T5, human α2B adrenergic receptor (Homo sapiens, UniProt P18089).
T5 sequence (P18089 1-450): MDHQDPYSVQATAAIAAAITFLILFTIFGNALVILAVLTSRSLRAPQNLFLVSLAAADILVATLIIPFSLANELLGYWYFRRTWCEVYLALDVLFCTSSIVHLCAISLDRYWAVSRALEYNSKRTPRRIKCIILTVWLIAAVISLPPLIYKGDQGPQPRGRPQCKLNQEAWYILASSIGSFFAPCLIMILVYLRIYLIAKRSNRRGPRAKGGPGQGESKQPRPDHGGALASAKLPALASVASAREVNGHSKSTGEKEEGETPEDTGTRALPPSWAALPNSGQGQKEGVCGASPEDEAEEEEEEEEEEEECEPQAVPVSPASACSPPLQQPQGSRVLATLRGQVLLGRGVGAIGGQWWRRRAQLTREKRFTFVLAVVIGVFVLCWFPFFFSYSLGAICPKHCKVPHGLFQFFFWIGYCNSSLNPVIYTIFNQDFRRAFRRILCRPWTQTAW
In words: biochemical. The protocol: as §1, §2

Data set [9] relates to memory consolidation. As to the kind of experiment: Cued fear conditioning test. The following applies: 10 and 20 μg/kg, 30 min before conditioning.
Description: Rats were housed 1 animal per cage in sterilized solid bottom polycarbonate cages (Dimensions 42.5 cm [L] X 26.5 cm [W] X 18.5 cm [H]) with stainless steel grill tops, facilitate for food and water bottle, and bedding of corncob husk.
Rodent fear conditioning chambers (L x W x H, rat: 26 × 30 × 33 cm, Coulbourn instruments. United States) placed in sound attenuating cabinets were used. Stainless steel grid floors (L x W, rat: 26 × 30 cm), connected to shock scramblers were used to deliver the shock. A ventilation fan provided a background noise of 60 dB. A light bulb (centered on the right wall, and 27 cm above the floor of the chamber) provided ambient illumination. Experiments were recorded using video camera, mounted on the cabinet ceiling and images were analyzed with freeze frame 3 software (V3.2.1). The fear conditioning chambers have transparent acrylic panels. All experimentations were carried out in a single fear conditioning chamber.
On day 0, animals were randomized into eight groups based on their body weight.
Session-I: On day 1 (N = 5), rats were brought to the laboratory at least 1 h prior to experimentation. […]
On day 2, rats were brought to the laboratory at least 1 h prior to experimentation. […] The freezing behavior of the animals was recorded for 6 min (starting from the time the animal placed in the fear conditioning chamber). […]
The conditions of data set [10]: assumed for free plasma calculation; ref Bol et al., 1997; cited from earlier work.
Data set [11] has as its system sleep onset latency. The text has this: Chow and water were provided ad libitum for the duration of the study.
Data set [12] is described as follows: in vivo. The following applies: male, Sprague Dawley, rat. The method, then: Male Sprague Dawley (SD) rats, 200–250 g, purchased from Charles River Laboratories (South San Francisco, CA) were used for microdialyses studies. Upon arrival, rats were group-housed in polycarbonate cages (2-3 rats per cage) and acclimated for at least 7 days prior to commencing the studies. […] Rats were tracked via unique identifying numbers.
Ten male SD rats with a jugular vein (JV) cannula were used in this study. Rats were anesthetized using isoflurane (2%, 800 mL/min O2). Bupivacaine was used for local anesthesia and carprofen for peri-/post-operative analgesia. Animals were placed in a stereotaxic frame (Kopf instruments, United States) and MetaQuant microdialysis probes (PAN membrane, BrainLink, Netherlands) were implanted into the prefrontal cortex (PFC), 4 mm exposed surface. Coordinates for the tips of the probes for the PFC are: antero-posterior (AP) = +3.4 mm from bregma, lateral (L) = −0.8 mm from midline and ventral (V) = −5.0 mm from dura, the toothbar set at −3.3 mm. […] The microdialysis probes were connected with flexible PEEK tubing to a microperfusion pump (Harvard PHD 2000 Syringe pump, Holliston, MA). […] Microdialysis samples were collected for 30 min periods by an automated fraction collector (820 Microsampler, Univentor, Malta) into 300 µL polypropylene mini-vials. […]

Data set [13] relates to CCK-4 induced anxiety. As to the kind of experiment: CCK-4 elevated plus maze test.
Description: 48 male Wistar rats were supplied by Janvier (Le Genest St Isle, France) for this study. They were purchased at a body weight of 150 g and reached a body weight of about 270 g at the time of use.
In the present study, 12 animals per group were used. The apparatus is a PVC maze covered with Plexiglas and subdivided into four equal exploratory arms (40 × 10 cm), which are all interconnected by a small platform (10 × 10 cm). The apparatus is placed 65 cm above the floor. Two arms are open, and two others are closed with transparent wall (high: 10 cm).
After compound administration, a rat is placed on the platform opposite a closed arm. The number of entries and the time spent on each arm are recorded during a 5 min period. The animal is considered as entered in an arm when it places its four paws in the arm. The apparatus was cleaned between each animal using alcohol (70%). Urine and feces were removed from the maze. Data were analyzed by One way ANOVA followed by Dunnett’s comparisons test. CCK-4 (0.2 mg/kg) was administered intraperitoneally in the Wistar rats 30 min prior to the test. […] 60 min prior to the study (30 min prior to CCK-4 administration). Diazepam (1 mg/kg) was administered 30 min prior to study (at the time of CCK-4 administration). After the administration of compounds, rats were placed on the platform opposite a closed arm in the elevated plus maze. The number of entries and the time spent in each arm were recorded during a 5 min period. The animal was considered as entered in an arm when it placed its four paws in the arm.
For data set [14], the system named is motor coordination. In words: Rotarod test. As to conditions: 4 mg/kg i.p., 30 min before test; p < 0.01. The method, then:
75 male Swiss mice (6 weeks old, 29–41 g body weight range at the beginning of the experiment) were supplied by Janvier Labs (Le Genest St Isle, France). […] Environmental enrichment such as gnawing and nesting material was provided.
On Day 0, mice were submitted to two training trials separated by a 5-min interval. For each trial, mice were placed on a rod (diameter: 7 cm) rotating at a speed of 18 revolutions per minute for a 3-min period. On Day 1, a final training was performed in the morning (at least 2 h before the drug testing). On Day 1, the test session was performed at least 2 h after the habituation period (in the afternoon) and mice were placed on the rod for a maximum period of 3 min. The latency to fall off the rod was recorded. Data was analyzed by using one-way ANOVA followed by Dunnett’s comparisons test.75 male Swiss mice (6 weeks old, 29–41 g) were allocated into five groups (10–15 animals per group).
A general note: In the rotarod test animals must keep their balance on a rotating rod.

The mark [15] stands for this setting: daily i.p. Day 8 to Day 32, 40 μg/kg, p < 0.0001.

In the case of `Clc1cccc(Cl)c1N=C1NCCN1` [Clonidine], the “intrinsic activity at the α2C-AR” value in data set [1] (in words, repeated in two assay systems) is “very low intrinsic activity”. In addition, the Max activity in [1] was found to be 32%; in [2], 8%; in data set [3], 93%; in data set [4], 76%.

By EC50 is commonly meant the concentration needed to bring the measured effect to its halfway point. Read a high EC50 as lower potency in that assay. Usually Tmax stands for the time from dosing to the highest level. As to `Cc1cccc([C@H](C)c2cnc[nH]2)c1C` [Dexmedetomidine], the EC50 in data set [1] amounted to 14 nM; in [5] it was 0.6 nM; in data set [2] it was 24 nM; in [8] it was 2.8 nM. The Max activity is on record as 110% in [1]; 106% in data set [5]; 95% in data set [2]; 101% in data set [3]; 89% in data set [4]; 147% in data set [8]. Also, the “time spent in the periphery, change vs vehicle controls” value was “+159%” in [6] (first treated group) and “+138%” in [6] (second treated group). Also, the “mean duration of immobility, change vs vehicle controls” value in data set [6] (first treated group, p < 0.01) is on record as −43%; in data set [6] (second treated group, p < 0.01) it was −36%. In addition, the “mean distance travelled, change vs vehicle controls” value in data set [6] (first treated group, p < 0.05) was “+31%”; in [6] (second treated group, p < 0.01), “+36%”. Further, in data set [6] (setting [15]), the “mean distance travelled over the testing period” value is “increased”. Moreover, the “mean duration of immobility over the testing period” value in data set [6] (setting [15]) is on record as “decreased”. In addition, in [6] (setting [15]), the “time spent in the periphery over the testing period” value is given as “increased”. Also, the immobility time entry is reported as “significantly decreased” in [7] (1 μg/kg intramuscular, p = 0.0238) and “significantly decreased” in [7] (5 μg/kg intramuscular, p < 0.0001). In addition, in [9], the “memory formation (duration of freezing)” value is listed as “did not impair memory formation”. Besides, in data set [10], the “bound to plasma proteins” value is listed as 84%. The “onset of SWS” value in [11] (5 μg/kg intramuscular) and in data set [11] (20 μg/kg intramuscular) was “significantly reduced” in each case. Further, the Tmax in data set [12] fell in the range of 30 to 60 min.

For `CN1C(=O)CN=C(c2ccccc2)c2cc(Cl)ccc21` [Diazepam], the “effects in elevated plus maze, positive control” value in data set [13] (1 mg/kg, 30 min prior, with CCK-4) is recorded as “exceeded those measured in vehicle animals”. The “latency to fall-off, change vs vehicle controls” value in [14] is on record as −60%.

In the case of `N=C(N)NC(=O)Cc1c(Cl)cccc1Cl` [Guanfacine], the Max activity in data set [1] was 72%; in [2], 68%; in [3], 100%; in data set [4], 78%.

Consider `CC(Oc1c(Cl)cccc1Cl)C1=NCCN1` (centres unmarked) [Lofexidine], for which the values for the EC50 in data set [1] and in [8] were 23 nM and 43 nM, respectively. Moreover, the Max activity is given as 50% in data set [1] and 97% in data set [8] (α2BR, relative to maximal response of UK-14304).

In the case of `CN(C)CCCN1c2ccccc2CCc2ccccc21` [imipramine], the “immobility time, positive control” value in [7] (30 mg/kg) is reported as “p = 0.0002 versus vehicle”.

Turning to Cholecystokinin tetrapeptide [CCK-4], the “number of entries in the open arms” value in data set [13] (CCK-4 0.2 mg/kg i.p. alone, vehicle 4.3) is reported as 1.3. The “time spent in the open arms” value in data set [13] (CCK-4 0.2 mg/kg i.p. alone, vehicle 45 s) stood at 6 s.
